Assay results as given in US6670366B1, “Pyrazolopyrimidinone cGMP PDE5 inhibitors for the treatment of sexual dysfunction” (Pfizer Inc, priority 1998, dated 2003).

biological target: cGMP PDE5 (UniProt O76074); assay: In vitro PDE inhibitory activity against cGMP PDE5; format: biochemical, human or rabbit; settings: concentration of compound required for 50% inhibition of enzyme activity, read-out: IC50 as inhibitors of cGMP PDE5
Experimental: In vitro PDE inhibitory activities against cyclic guanosine 3′,5′-monophosphate (cGMP) and cyclic adenosine 3′,5′-monophosphate (cAMP) phosphodiesterases were determined by measurement of their IC50 values (the concentration of compound required for 50% inhibition of enzyme activity).
The required PDE enzymes were isolated from a variety of sources, including human corpus cavernosum, human and rabbit platelets, human cardiac ventricle, human skeletal muscle and bovine retina, essentially by the method of W. J. Thompson and M. M. Appleman (Biochem., 1971, 10, 311). In particular, the cGMP-specific PDE (PDE5) and the cGMP-inhibited cAMP PDE (PDE3) were obtained from human corpus cavernosum tissue, human platelets or rabbit platelets; the cGMP-stimulated PDE (PDE2) was obtained from human corpus cavernosum; the calcium/calmodulin (Ca/CAM)-dependent PDE (PDE1) from human cardiac ventricle; the cAMP-specific PDE (PDE4) from human skeletal muscle; and the photoreceptor PDE (PDE6) from bovine retina.
Assays were performed using modification of the “batch” method of W. J. Thompson et al. (Biochem., 1979, 18, 5228).

IC50	SMILES
8.5 nM	CCCOc1ncc(S(=O)(=O)NCCN(C)C)cc1-c1nc2c(CCC)n(Cc3ccccn3)nc2c(=O)[nH]1 [Example 20, 5-(5-[(3-N,N-Dimethylamino)-1-ethylaminosulfonyl]-2-n-propoxypyridin-3-yl)-3-n-propyl-2-(pyridin-2-yl)methyl-2,6-dihydro-7H-pyrazolo[4,3-d]pyrimidin-7-one]
9.7 nM	CCCc1c2nc(-c3cc(S(=O)(=O)N(C)C)cnc3OCC)[nH]c(=O)c2nn1Cc1ccccn1 [Example 19, 5-[5-(N,N-Dimethylaminosulfonyl)-2-ethoxypyridin-3-yl]-3-n-propyl-2-(pyridin-2-yl)methyl-2,6dihydro-7H-pyrazolo[4,3-d]pyrimidin-7-one]
10.3 nM	CCc1c2nc(-c3cc(S(=O)(=O)N4CCC(CC)CC4)cnc3OCCOC)[nH]c(=O)c2nn1Cc1ccccn1 [Example 22]
14 nM	CCCOc1ccc(S(=O)(=O)NC2CCN(C(=O)OCC)CC2)cc1-c1nc2c(CCC)n(Cc3ccccn3)nc2c(=O)[nH]1 [Example 10]
16.4 nM	CCCOc1ccc(S(=O)(=O)N2CC(O)C2)cc1-c1nc2c(CCC)n(Cc3ccccn3)nc2c(=O)[nH]1 [Example 8]
26.6 nM	CCOc1ccc(S(=O)(=O)N2CCC(CC)CC2)cc1-c1nc2c(CC)n(Cc3ccccn3)nc2c(=O)[nH]1 [Example 4]
